Reference: patent US9801896B2, “Compositions comprising S-adenosylmethionine and a gallic acid ester” (Methylation Sciences International SRL, priority 2012, dated 2017)

Tests used:
[1] = PAMPA permeability of SAMe with and without propyl gallate (Example 4); assay type: in vitro ADME; conditions: for Average Effective Permeability: PAMPA, SAMe 2 mM, 5 hr
Method: Using a PAMPA (parallel artificial membrane permeability assay) model, the permeability of SAMe was measured in the presence and absence of propyl gallate.
PAMPA methods were used to determine the permeability of substances from a donor compartment, through a lipid-infused artificial membrane into an acceptor compartment. A multi-well microtitre plate was used for the donor and a membrane/acceptor compartment is placed on top. At the beginning of the test, SAMe disulfate tosylate (with or without different concentrations of propyl gallate as indicated in Table 2 below) was added to the donor compartment, and the acceptor compartment remained drug-free. After an incubation period, the compartments were separated and the amount of SAMe was measured in each compartment. Mass balance allows calculation of SAMe that remains in the membrane.

[2] = Beagle pharmacokinetics of SAMe tablets with various amounts of propyl gallate (Example 6)
Method: Tablets comprising SAMe and various amounts of propyl gallate were generated by mixing S-adenosyl-L-methionine disulfate tosylate granules (equivalent to 400 mg of SAMe ion) with the various amounts of propyl gallate listed in Table 4 below. Each mixture was pressed into a tablet and coated followed by dissolution profiling and in vivo pharmacokinetic analysis using beagle dogs.
For in vivo studies, fasted male beagle dogs (7-10 kg) were used as described above. Each group (6 dogs for SAMe/propyl gallate and 6 dogs for the SAMe control lacking propyl gallate) were dosed with a single orally administered enteric coated tablet, under fasted conditions, followed by 5 mL of purified water orally with a syringe to facilitate swallowing. Pharmacokinetic blood samples (2 mL each) for SAMe analysis were collected from the jugular vein using the following time points: pre-dose, 20 and 40 minutes, 1, 1.5, 2, 3, 4, 6, and 8 hours after treatment. The venipuncture blood samples were collected into tubes containing the anticoagulant K2-EDTA, and stored on wet ice pending processing. Following collection, samples were centrifuged (at 4° C.) to separate the plasma fraction from the blood cells. […]
The concentration of SAMe in dog plasma was determined using the well established LC/MS/MS method. […]

[3] = Beagle plasma SAMe after tablets of SAMe co-formulated with alkyl gallates (Example 1); assay type: in vivo; conditions: fasted male beagle dogs, single oral enteric coated tablet, 400 mg SAMe ion co-formulated with 25 mg gallic acid ester; FIG. 1; compared with other formulations
Method: Tablets comprising SAMe and various alkyl gallates of different chemical structure were generated by mixing SAMe with either methyl gallate, ethyl gallate, butyl gallate, isobutyl gallate, isoamyl gallate or octyl gallate (see structures below). Tablets were then administered to Beagle dogs and blood samples were withdrawn over time. Analysis of concentrations of SAMe in plasma was used to compare the effects of these gallic acid esters on the uptake of orally administered SAMe in the blood.
Tablets were generated by mixing 400 mg SAMe ion (from SAMe disulfate tosylate) with 25 mg gallic acid ester along with excipients (microcrystalline cellulose, sodium starch glycolate, silicon dioxide, and magnesium stearate) to make up the 1025 mg tablet. A commercial seal coat and then a commercial enteric coat was applied to the tablets prior to dissolution testing. Detailed dissolution profiling was performed according to USP standards at either pH 6.8 or 6.0 on each set of tablets to ensure that adequate dissolution was achieved prior to in vivo pharmacokinetic analysis.
The study protocol was approved by the institution's Animal Care Committee, and all animals were cared for according to regulations proposed by Agriculture Canada and the USDA.
Ten different formulations were tested in the present study. 400 mg SAMe co-formulated with 25 mg propyl gallate was compared to: SAMe control tablets (i.e., with no propyl gallate); SAMe tablets co-administered with separate 25 mg propyl gallate tablets; a commercially available SAMe product (400 mg); or 400 mg SAMe with 25 mg of either methyl gallate, ethyl gallate, butyl gallate, isobutyl gallate, isoamyl gallate or octyl gallate.

[4] = Beagle plasma SAMe after capsules of SAMe with gallate-related molecules (Example 2); assay type: in vivo; conditions: beagle dogs, single oral capsule, 100 mg SAMe ion with 100 mg agent; versus BHT, propyl paraben and gallic acid; FIGS. 2A, 2B
Method: BHT, propyl paraben and propyl gallate are food-grade antioxidants which have often been used in combination. […] The capsules also contained additional excipients (Microcrystalline cellulose, Sodium Starch Glycolate, Colloidal Silicon Dioxide, and Magnesium Stearate). Capsules were manually filled and in some embodiments, a layer of commercial seal coat was applied to the capsules using a fluid bed coater. Beagle dogs were administered a single orally delivered dose as described above.

Caco-2 cell monolayers = experiment: Permeability of SAMe across Caco-2 cell monolayers with propyl gallate (Example 3)
Method: The Caco-2 cell line is derived from a human colorectal carcinoma and is widely used for in vitro cell culture models for the study of gastrointestinal drug absorption (Stewart, B., (1995) Pharm. Res. 12:693). In these models, pure cell lines are grown on a semi-permeable membrane. Drug formulations are placed on the apical or basolateral side of the cell monolayer and transport is determined via measurement of drug concentrations on the other side of the membrane.
The Caco-2 cell line utilized here was from the American Type Culture Collection (ATCC). Caco-2 cells are grown in Dulbecco's modified Eagle's medium (DMEM, Gibco) supplemented with 20% FBS (fetal bovine serum, Gibco), 100 uM non-essential amino acids (NEAA, Gibco) and 2 mM L-glutamine (Gibco). […] The cells used in transport studies were grown for 3 days before the experiments. The culturing conditions were 37° C. in an atmosphere of 5% CO2 and 100% humidity.
A 2 mM aqueous solution of SAMe disulfate tosylate was added on the apical or basolateral side according to the manufacturer's procedure for the Caco-2 kit.
The permeability (Papp) of SAMe is calculated using the following formula: […]
Where dQ/dt is the rate of permeation, C0 is the initial concentration of test agent, and A is the area of the monolayer.

C[S+](CC[C@H](N)C(=O)[O-])C[C@H]1O[C@@H](n2cnc3c(N)ncnc32)[C@H](O)[C@@H]1O (stereo partly drawn) [SAMe, S-adenosyl-L-methionine]
Average Effective Permeability ([1]; Propyl Gallate 0 mM): 0.0042 ×10⁻⁶ cm/s
Average Effective Permeability ([1]; Propyl Gallate 0.2 mM): 0.002 ×10⁻⁶ cm/s
Average Effective Permeability ([1]; Propyl Gallate 2 mM): 0.0048 ×10⁻⁶ cm/s
transport of SAMe across the PAMPA membrane ([1]; summary of Table 2): essentially no transport
AUC(0-inf.) ± SD ([2]; beagle, oral tablet, SAMe 400 mg, Propyl Gallate 6.25 mg): 21,734 ± 9848^ hr*ng/mL

CCCCOC(=O)c1cc(O)c(O)c(O)c1 [butyl gallate]
maximum SAMe plasma concentration (Cmax), uptake into the plasma [3]: did not result in pharmacokinetics even close to that of SAMe-propyl gallate formulations

CCOC(=O)c1cc(O)c(O)c(O)c1 [ethyl gallate]
maximum SAMe plasma concentration (Cmax), uptake into the plasma [3]: superior uptake into the plasma

CC(C)CCOC(=O)c1cc(O)c(O)c(O)c1 [isoamyl gallate]
maximum SAMe plasma concentration (Cmax), uptake into the plasma [3]: superior uptake into the plasma

CCCCCCCCOC(=O)c1cc(O)c(O)c(O)c1 [octyl gallate]
maximum SAMe plasma concentration (Cmax), uptake into the plasma [3]: superior uptake into the plasma

CCCOC(=O)c1cc(O)c(O)c(O)c1 [propyl gallate]
maximum SAMe plasma concentration (Cmax), uptake into the plasma [3]: superior uptake into the plasma
plasma SAMe Cmax and AUC, SAMe uptake into the blood [4]: superior and surprising ability
effect of propyl gallate on SAMe transport in Caco-2 cells (Caco-2 cell monolayers; summary of Table 1): increases SAMe transport
relationship of propyl gallate with SAMe uptake in vivo ([2]; dog, in vivo): dose-response relationship

S-adenosyl-L-methionine disulfate tosylate [SAMe disulfate tosylate]
apparent permeability coefficient (Papp), apical to basolateral (Caco-2 cell monolayers; Caco-2, apical to basolateral, SAMe salt alone): 0.41 ×10⁻⁶ cm/s
apparent permeability coefficient (Papp), basolateral to apical (Caco-2 cell monolayers; Caco-2, basolateral to apical, SAMe salt alone): 0.5 ×10⁻⁶ cm/s
